{"source": "patent US12011439B2", "about": "“Combination therapy using C—C chemokine receptor 4 (CCR4) antagonists and one or more immune checkpoint inhibitors” (CHEMOCENTRYX, INC., priority 2018, dated 2024)", "key": {"CXCR2": {"molecular_target": "T1, CXCR2 (Homo sapiens, UniProt P25025)", "T1 sequence (P25025 1-360)": "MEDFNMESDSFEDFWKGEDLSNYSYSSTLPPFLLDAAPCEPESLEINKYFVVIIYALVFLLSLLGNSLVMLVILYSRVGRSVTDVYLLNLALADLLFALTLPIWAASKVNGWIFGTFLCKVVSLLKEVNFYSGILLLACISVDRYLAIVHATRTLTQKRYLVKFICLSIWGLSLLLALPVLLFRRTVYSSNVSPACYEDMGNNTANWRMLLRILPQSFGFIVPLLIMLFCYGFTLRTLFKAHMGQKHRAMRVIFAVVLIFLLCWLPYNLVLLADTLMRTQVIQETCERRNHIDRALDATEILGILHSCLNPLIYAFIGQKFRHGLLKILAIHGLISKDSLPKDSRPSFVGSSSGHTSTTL", "assay": "Compound 1 selectivity panel, buffer IC50", "format": "cell-based", "conditions": "Receptor CXCR2", "description": "(§1) The selectivity of Compound 1 was tested by determining the IC50 value against a diverse panel of receptors, enzymes, and ion channels. […] See, Table 1."}, "Duffy": {"molecular_target": "T2, Duffy (Homo sapiens, UniProt Q16570)", "T2 sequence (Q16570 1-336)": "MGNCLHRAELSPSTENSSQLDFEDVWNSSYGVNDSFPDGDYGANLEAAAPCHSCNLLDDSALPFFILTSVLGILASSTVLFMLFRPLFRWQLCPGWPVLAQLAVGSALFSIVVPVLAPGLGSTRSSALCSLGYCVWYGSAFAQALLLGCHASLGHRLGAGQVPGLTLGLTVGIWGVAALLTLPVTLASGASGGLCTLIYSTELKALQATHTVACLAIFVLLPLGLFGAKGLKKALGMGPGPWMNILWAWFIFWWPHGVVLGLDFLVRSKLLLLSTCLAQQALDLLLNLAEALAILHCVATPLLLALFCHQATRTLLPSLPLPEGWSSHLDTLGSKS", "assay": "Compound 1 selectivity panel, buffer IC50", "format": "cell-based", "conditions": "Receptor Duffy", "description": "as §1"}, "CCR4": {"molecular_target": "T3, CCR4 (Homo sapiens, UniProt P51679)", "T3 sequence (P51679 1-360)": "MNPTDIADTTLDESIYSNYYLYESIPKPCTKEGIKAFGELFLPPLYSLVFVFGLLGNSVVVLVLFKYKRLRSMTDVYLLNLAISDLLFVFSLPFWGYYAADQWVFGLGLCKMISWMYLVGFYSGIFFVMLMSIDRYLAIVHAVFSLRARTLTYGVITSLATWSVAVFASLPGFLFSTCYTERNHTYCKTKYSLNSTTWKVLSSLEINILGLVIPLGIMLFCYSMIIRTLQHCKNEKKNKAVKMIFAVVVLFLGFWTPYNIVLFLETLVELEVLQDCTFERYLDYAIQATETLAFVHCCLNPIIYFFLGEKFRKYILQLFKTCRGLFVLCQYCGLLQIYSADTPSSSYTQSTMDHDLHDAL", "assay": "Compound 1 selectivity panel, buffer IC50", "format": "cell-based", "description": "as §1"}, "CCR6": {"molecular_target": "T4, CCR6 (Homo sapiens, UniProt P51684)", "T4 sequence (P51684 1-374)": "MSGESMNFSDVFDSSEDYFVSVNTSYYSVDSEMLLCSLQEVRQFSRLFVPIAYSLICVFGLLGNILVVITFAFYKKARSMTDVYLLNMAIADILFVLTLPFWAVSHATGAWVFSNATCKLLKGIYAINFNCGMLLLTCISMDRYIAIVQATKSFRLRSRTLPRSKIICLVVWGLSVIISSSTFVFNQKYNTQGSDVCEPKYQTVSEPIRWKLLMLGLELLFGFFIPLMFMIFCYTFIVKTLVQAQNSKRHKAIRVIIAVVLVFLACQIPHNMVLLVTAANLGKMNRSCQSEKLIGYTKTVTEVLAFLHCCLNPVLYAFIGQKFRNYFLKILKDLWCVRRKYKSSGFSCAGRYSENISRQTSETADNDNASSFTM", "assay": "Compound 1 selectivity panel, buffer IC50", "format": "cell-based", "conditions": "Receptor CCR6", "description": "as §1"}, "[1]": {"assay": "Compound 1 selectivity panel, buffer IC50", "format": "cell-based", "conditions": "Receptor CCR12", "description": "as §1"}, "KCM cells": {"system": "KCM cells", "assay": "KCM orthotopic pancreatic tumor model", "format": "in vivo, mice", "description": "The subcutaneous CT26 colon cancer model and the orthotopic KCM pancreatic cancer model were used to assess the effects of a CCR4 inhibitor, Compound 1, in combination with anti-CTLA-4 antibody (BioXcell: anti-mouse CTLA-4 (Clone: 9H10), raised in Syrian Hamster, purified with protein G). CT26 cells were implanted into the flanks of 9 week female Balb/c mice. Mice were randomized into study groups based on the tumor sizes on day 6, and dosing of both Compound 1 and anti-CTLA-4 started on day 7. For the orthotopic pancreatic cancer model, KCM cells were implanted directly into the pancreas, and dosing of Compound 1 and anti-CTLA-4 also began on day 7. Compound 1 was dosed orally twice daily at 30 mg/kg, and anti-CTLA-4 was dosed IP on days 7, 11 and 15 at 100 μg/mouse.\nAs briefly described in Example 1, above, a KCM pancreatic cancer model was used to assess the effectiveness of a CCR4 inhibitor in combination with an anti-CTLA-4 antibody. The mice were broken into 4 groups (n=12 each group): isotype antibody+Vehicle; Isotype Antibody+Compound 1; anti-CTLA-4+Vehicle; anti-CTLA-4+Compound 1. The mice used were 7-8 week old C57BL/6 female mice. […]\nAfter completion of the study, the tumor/pancreases weight for each group was measured. […]\nChanges in suppressive immune cell populations were also measured at the completion of this study. […] Pancreas from sham-operated mice were processed and analyzed. […]"}}, "data": [{"smiles": "C[C@@H](Nc1cc(C2CCN([C@H]3CCCN(CCC(=O)O)C3)CC2)ccc1Cl)c1ccc(Cl)cc1Cl", "note": "[Compound 1]", "values": [{"measurement": "IC50", "setting": "CXCR2", "value": "> 10", "unit": "µM"}, {"measurement": "IC50", "setting": "Duffy", "value": "> 10", "unit": "µM"}, {"measurement": "IC50", "setting": "CCR4; Receptor CCR4, buffer", "value": 0.002, "unit": "µM"}, {"measurement": "Selectivity against a diverse panel of receptors, enzymes, and ion channels", "setting": "CCR4; in words", "value": "highly specific for CCR4"}, {"measurement": "IC50", "setting": "CCR6", "value": "> 10", "unit": "µM"}, {"measurement": "IC50", "setting": "[1]", "value": "> 10", "unit": "µM"}, {"measurement": "Spleen weight", "setting": "KCM cells", "value": "reduced"}, {"measurement": "Tumor burden (tumor + pancreas weight)", "setting": "KCM cells; Compound 1 bid, anti-CTLA-4 100 μg i.p.", "value": "significantly reduced tumor burden"}]}]}
